The record followed here is patent US10538567B2, “Compounds as peptidic trigonal GLP1/glucagon/GIP receptor agonists” (priority 2016, dated 2020).

Numbered stars: 1 amine (or outer) side, 2 acyl side, 3 side chain; on linkers, the order of the positions; unused ones are H or OH. Square brackets hold non-standard residues; d marks the D form. Side chains are listed from the residue outwards. Peptide text beside a SMILES is read from it. * marks the point of attachment. γGlu = O=C(O)[C@H](CCC(=O)[*:2])N[*:1]; Stearoyl = CCCCCCCCCCCCCCCCCC(=O)*; Palmitoyl = CCCCCCCCCCCCCCCC(=O)*; AEEA = NCCOCCOCC(=O)O; Aib = CC(C)(N)C(=O)O Where only a bound is given, the exact number is not on record here.

System in one data set: not listed separately
Nature of the data set: Thioflavin T (ThT) assay for physical stability (fibrillation). The data set is classed as physicochemical. The settings on record: 3 mg/ml, 100 mM acetate pH 4.5 with m-cresol, 37° C. shaking. The text has this:
Low physical stability of a peptide solution may lead to amyloid fibril formation, which is observed as well-ordered, thread-like macromolecular structures in the sample, which eventually may lead to gel formation. Thioflavin T (ThT) is widely used to visualize and quantify the presence of misfolded protein aggregates. [Biancalana et al. (2010) Biochimica et Biophysica Acta. 1804 (7): 1405-1412]. […] Enzymol. 309, 274-284]. The time course for fibril formation often follows the characteristic shape of a sigmoidal curve and can be separated into three regions: a lag phase, a fast growth phase, and a plateau phase.
The typical fibril formation process starts with the lag phase in which the amount of partially folded peptide turned into fibrils is not significant enough to be detected. The lag-time corresponds to the time the critical mass of the nucleus is built. Afterwards, a drastic elongation phase follows and fibril concentration increases rapidly.
Investigations were carried out to determine fibrillation tendencies under stress conditions by shaking at 37° C. within Fluoroskan Ascent FL.
For the tests in Fluoroskan Ascent FL, 200 μL sample were placed into a 96 well mictrotiter plate PS, flat bottom, Greiner Fluotrac No. 655076. Plates were sealed with Scotch Tape (Quiagen). Samples were stressed by continuous cycles of 10 s shaking at 960 rpm and 50 s rest period at 37° C. The kinetic was monitored by measuring fluorescence intensity every 20 minutes.
Peptides were diluted in a buffer system to a final concentration of 3 mg/ml. 20 μL of a 10.1 mM ThT solution in H2O were added to 2 mL of peptide solution to receive a final concentration of 100 μM ThT. For each sample eight replicates were tested.
Tht buffer system A) 100 mM Acetate pH 4.5 including m-cresol (100 mM Natriumacetat trihydrat, pH adjustment using 2N CH3COOH, 2.7 mg/mL m-cresol) Tht buffer system B) 100 mM citrate buffer pH 6.0
Lag time in hours in Thioflavin T (ThT) assay of peptide samples was determined in ThT buffer system A as described in Methods.
Take `CCCCCCCCCCCCCCCC(=O)N[C@@H](CCC(=O)NCCCC[C@H](NC(=O)[C@H](CC(C)C)NC(=O)[C@H](CCCCN)NC(=O)[C@H](CO)NC(=O)[C@H](CC(C)C)NC(=O)[C@H](CC(=O)O)NC(=O)[C@H](CO)NC(=O)[C@@H](NC(=O)[C@H](Cc1ccccc1)NC(=O)[C@@H](NC(=O)CNC(=O)[C@H](Cc1c[nH]cn1)NC(=O)C(C)(C)NC(=O)[C@@H](N)Cc1c[nH]cn1)[C@@H](C)O)[C@@H](C)O)C(=O)N[C@@H](CCC(=O)O)C(=O)N[C@@H](CCC(=O)O)C(=O)N[C@@H](CCC(N)=O)C(=O)N[C@@H](CCCNC(=N)N)C(=O)N[C@@H](CCC(N)=O)C(=O)NC(C)(C)C(=O)N[C@@H](CCC(=O)O)C(=O)N[C@@H](Cc1ccccc1)C(=O)N[C@H](C(=O)N[C@@H](CCC(=O)O)C(=O)N[C@@H](Cc1c[nH]c2ccccc12)C(=O)N[C@@H](CC(C)C)C(=O)N[C@@H](CCCCN)C(=O)N[C@@H](C)C(=O)NCC(=O)NCC(=O)N1CCC[C@H]1C(=O)N1CCC[C@H]1C(=O)N[C@@H](CO)C(=O)NC(C)(C)C(=O)N[C@@H](CCCCN)C(=O)N1CCC[C@H]1C(=O)N1CCC[C@H]1C(=O)N1CCC[C@H]1C(=O)N[C@@H](CCCCN)C(N)=O)[C@@H](C)CC)C(=O)O` [SEQ ID NO: 18, H-Aib-H-G-T-F-T-S-D-L-S-K-L-K[gGlu-Palm]-E-E-Q-R-Q-Aib-E-F-I-E-W-L-K-A-G-G-P-P-S-Aib-K-P-P-P-K-NH2]: the “Lag time before increase” value is >45 h. Same read-out and setting: the figure for `CCCCCCCCCCCCCCCCCC(=O)N[C@@H](CCC(=O)NCCCC[C@H](NC(=O)[C@H](CC(C)C)NC(=O)[C@H](CCCCN)NC(=O)[C@H](CO)NC(=O)[C@H](CC(C)C)NC(=O)[C@H](CC(=O)O)NC(=O)[C@H](CO)NC(=O)[C@@H](NC(=O)[C@H](Cc1ccccc1)NC(=O)[C@@H](NC(=O)CNC(=O)[C@H](Cc1c[nH]cn1)NC(=O)C(C)(C)NC(=O)[C@@H](N)Cc1c[nH]cn1)[C@@H](C)O)[C@@H](C)O)C(=O)N[C@@H](CCC(=O)O)C(=O)N[C@@H](CCC(=O)O)C(=O)N[C@@H](CCC(N)=O)C(=O)N[C@@H](CCCNC(=N)N)C(=O)N[C@@H](CCC(N)=O)C(=O)NC(C)(C)C(=O)N[C@@H](CCC(=O)O)C(=O)N[C@@H](Cc1ccccc1)C(=O)N[C@H](C(=O)N[C@@H](CCC(=O)O)C(=O)N[C@@H](Cc1c[nH]c2ccccc12)C(=O)N[C@@H](CC(C)C)C(=O)N[C@@H](CCCCN)C(=O)N[C@@H](C)C(=O)NCC(=O)NCC(=O)N1CCC[C@H]1C(=O)N1CCC[C@H]1C(=O)N[C@@H](CO)C(=O)NC(C)(C)C(=O)N[C@@H](CCCCN)C(=O)N1CCC[C@H]1C(=O)N1CCC[C@H]1C(=O)N1CCC[C@H]1C(=O)N[C@@H](CCCCN)C(N)=O)[C@@H](C)CC)C(=O)O` [SEQ ID NO: 19, H-Aib-H-G-T-F-T-S-D-L-S-K-L-K[gGlu-Stea]-E-E-Q-R-Q-Aib-E-F-I-E-W-L-K-A-G-G-P-P-S-Aib-K-P-P-P-K-NH2] (H-H[Aib]HGTFTSDLSKLK([γGlu-Stearoyl])EEQRQ[Aib]EFIEWLKAGGPPS[Aib]KPPPK-NH2) is >45 h.

The next data set concerns female diabetic db/db mice. Nature of the data set: Acute effects after s.c. treatment on blood glucose in non-fasting female diabetic db/db mice. The conditions noted are these: single 30 μg/kg s.c. In kind it is in vivo. Here is the method:
Female healthy, lean BKS.Cg-(lean)/OlaHsd and diabetes-prone, obese BKS.Cg-+Lepr^db/+Lepr^db/OlaHsd mice were ordered group housed from Envigo RMS Inc., shipped group housed and remained group housed in shoebox caging with wood chip bedding until day 15 of the predose phase. At the study start mice were approximately 12 weeks old.
Mice were housed under vivarium conditions including a 12 h light/dark cycle (light phase 04:00 AM-4:00 PM), room temperatures between 23-26° C. and a relative humidity between 30-70%. All animals had free access to water and Purina Fomulab Diet 5008.
On predose day 9 blood glucose and body mass (approximately between 08:00-10:00 AM) as well as HbA1c measurements were performed. On day 15 of the predose phase animals were assigned to treatment groups (n=8) and to new cages to match mean HbA1c and body masses between all db/db groups. An age-matched lean group was included in the study as a healthy, lean reference.
Prior to day 1 of the dosing phase, the test article was diluted with Phosphate Buffered Saline (PBS, Gibco, without CaCl2 and MgCl2) to a concentration of 1 mg/mL and aliquots of this stock solution were stored at approximately ≤−60° C. On day 1 of the dosing phase the stock aliquot was thawed and the injected test article solution was prepared fresh by diluting it with PBS to achieve the desired concentration.
On Day 1 of the dosing phase db/db mice were either treated once with a s.c. injection of PBS-vehicle or 30 μg/kg test article. The lean reference group was treated once with a s.c. injection of PBS-vehicle. The dosing was initiated and completed between 08:00 and 10:00 AM. The applied volume was 5 ml/kg and the dose was adjusted to the most recent body mass recording of each individual.
Animals had unlimited access to water and feed during the experiment. On day 1 of the dosing phase approximately 5 μL of blood were collected via tail clips at minute −30 and 0 prior to any other inlife activities. At minute 0 mice received a s.c. dose of either PBS-vehicle or 30 μg/kg test article. Further blood samples were harvested at hour 0.25, 0.5, 1, 1.5, 2, 3, 4, 6, 8, and 24 post-dose. Glucose measurements were performed in whole blood using AlphaTRAK glucometers. If the glucose concentrations of two measurements differed by more than 20 mg/dL a third value was recorded. The Area Under the Curve (AUC) for blood glucose was calculated via the trapezoid method and for the duration of the 24 post-dose hours.
In the Figures data are depicted as means±SEM. […] A One Way Analysis of Variance and multiple comparisons (Dunnett's Method) were performed comparing the group of diabetic, obese db/db vehicle mice (n=8) with each diabetic, obese db/db test article treated mice (n=8). […] Non-diabetic, lean-vehicle group data are depicted in the Figures serving as a reference dataset for the non-obese, non-diabetic state.
Turning to “H-Aib-H-G-T-F-T-S-D-L-S-K-L-K[gGlu-gGlu-AEEA-Palm]-E-E-Q-R-Q-Aib-E-F-I-E-W-L-K-A-G-G-P-P-S-Aib-K-P-P-P-K-NH2 (H-H[Aib]HGTFTSDLSKLK([γGlu-γGlu-AEEA-Palmitoyl])EEQRQ[Aib]EFIEWLKAGGPPS[Aib]KPPPK-NH2) [SEQ ID NO: 26]”, the “mean blood glucose concentration 24 hours post-dose relative to baseline” value is recorded as “at or close to baseline”.
